# What was measured:
# normal volunteers [1] = test system: normal volunteers; set-up: method as in PMID 19643947, PMID 21426372, PMID 24341382; details: cited from earlier work
# normal volunteers [2] = test system: normal volunteers; set-up: method as in PMID 19643947, PMID 21426372, PMID 24341382; details: cited from earlier work; remark: listed apart in the source
# BALB/c mice [3] = assay: House dust mite/Rhinovirus exacerbated asthma model; type: in vivo, mouse; details: 24 hours post RV1b infection; for Total BALF neutrophils: PXS-4728A 2, dexamethasone 2, azithromycin 25 mg.kg^−1 ip.
# Experimental: Study performed at the University of Newcastle under local ethics committee. BALB/c mice were sensitized and challenged intranasally to 50 μg of crude HDM extract (Dermatophagoides pteronyssinus extract was obtained from Greer Laboratories) on days 0, 1 and 2 followed by four exposures of 5 μg HDM daily from day 14 to day 17 delivered in 50 μl of sterile saline. Animals were then infected on day 18 with infective Human Rhinovirus 1b RV1B41 (2.5 × 10^6 median tissue culture infective dose) intranasally. Mice were intranasally administered 50 μl infective or ultraviolet light (UV)–inactivated RV1B41. Mice were euthanized 24 hours after the rhinovirus challenge. BAL analysis was performed for total and differential counts and airway hyperreactivity (AHR) was assessed invasively by measurement of total lung resistance and dynamic compliance (BUXCO) in response to methacholine challenge as previously described. […]. Dose of azithromycin was chosen based on previously described findings, in respiratory viral infection models.
# [4] = test system: patients with severe neutrophilic asthma; set-up: method as in PMID 23291349; details: significance lost when all patients analysed together; cited from earlier work
# BALB/c mice [5] = assay: Klebsiella pneumoniae lung infection; details: 24 hours
# BALB/c mice [6] = assay: LPS airway inflammation, 6 hour time point; details: 6 hours after LPS; PXS-4728A 0.2 or 2 mg.kg^−1, dexamethasone 10 mg.kg^−1, oral 1 hour prior
# C57/BL6 mice = assay: Cecal ligation and puncture (CLP) induced sepsis; details: 6 hours; PXS-4728A 6 mg.kg^−1, dexamethasone 5 mg.kg^−1, oral 1 hour prior to surgery
# [7] = PXS-4728A 6 mg.kg^−1, dexamethasone 10 mg.kg^−1, oral 1 hour prior to infection
compound,measurement,setting,value
CC[C@@H](Nc1c(Nc2cccc(C(=O)N(C)C)c2O)c(=O)c1=O)c1ccc(C)o1 [SCH527123],Increased neutrophil content in sputum as a result of ozone challenge,normal volunteers [1],inhibit
O=C(Nc1ccc(Cl)c(S(=O)(=O)N2CCNCC2)c1O)Nc1cccc(F)c1Cl [SB-656933],Increased neutrophil content in sputum as a result of ozone challenge,normal volunteers [1],inhibit
C[C@H](CO)Nc1nc(SCc2cccc(F)c2F)nc2[nH]c(=O)sc12 [AZD8309],Efficacy during inhaled LPS challenge,normal volunteers [2],efficacious
CC[C@H]1OC(=O)[C@H](C)[C@@H](O[C@H]2C[C@@](C)(OC)[C@@H](O)[C@H](C)O2)[C@H](C)[C@@H](O[C@@H]2O[C@H](C)C[C@H](N(C)C)[C@H]2O)[C@](C)(O)C[C@@H](C)CN(C)[C@H](C)[C@@H](O)[C@]1(C)O [azithromycin],Airways hyperreactivity to methacholine challenge,"BALB/c mice [3]; PXS-4728A 2, azithromycin 25 mg.kg^−1 ip.",significantly reduced
same,Total BALF neutrophils,BALB/c mice [3],significantly dampened
same,Exacerbation rates,[4],reduced exacerbation rates
"C[C@@H]1C[C@H]2[C@@H]3CCC4=CC(=O)C=C[C@]4(C)[C@@]3(F)[C@@H](O)C[C@]2(C)[C@@]1(O)C(=O)CO [dexamethasone, reference compound]",Total BALF neutrophils,BALB/c mice [3],no impact
same,Neutrophil migration into the airway spaces (BALF),BALB/c mice [5]; [7],significantly dampened
same,Total leukocyte migration into the airway spaces (BALF),BALB/c mice [5]; [7],significantly dampened
same,"Log 10-CFU in the lung (bacterial load), average","BALB/c mice [5]; PXS-4728A 6 mg.kg^−1, dexamethasone 10 mg.kg^−1, vehicle 7.59",8.86 LOG 10-CFU
same,Influx of neutrophils in BALF,BALB/c mice [6],reduction
same,Peritoneal neutrophils,C57/BL6 mice,greatly diminished
same,Total peritoneal inflammatory cells,C57/BL6 mice,greatly diminished

# Reference: PMC4389443 (Respiratory Research, 2015)
